≈ marks a conversion by molar mass, not a printed value. Like-named read-outs stand apart in the source and are kept apart here.

The test system of series [1] is Lung cancer cell line A549. It is filed as cell-based, human. The following applies: 48 h. The protocol: (§1) Lung cancer A549, drug-resistant lung cancer A549-DPP, human hepatocellular carcinoma HepG2 and hepatocellular carcinoma SMMC-7721 cells obtained from the China cell bank of the Institute of Biochemistry and were cultured in DMEM culture medium (DMEM, Corning, NY, USA) containing 10% fetal bovine serum (FBS, Hyclone, Logan, UT, USA), 1% penicillin-streptomycin and an antifungal agent in a 5% CO2 humidified atmosphere at 37 °C. The culture medium was replaced once in a day. Trypsin digestion method was adopted for cell propagation. Upon reaching 80%–90% confluence, the cells were rinsed twice with PBS. A certain amount of 0.25% trypsin digestion solution was then added and maintained for 3–5 min at 37 °C. Afterward, DMEM culture medium containing 10% fetal bovine serum was added to terminate the digestion. The cells were then blown well to form single cell suspensions.
(§2) The cell viability was determined by measuring the ability of cells to transform MTT (Genview, Houston, TX, USA) to a purple formazan dye. The cells were seeded in 96-well tissue culture plates at 2.5 × 10^3 cells/well for 24 h. The cells were then incubated with galaxamide and its analogues for 48 h. After incubation, 20 μL/well of MTT solution (5 mg/mL phosphate buffered saline) were added and incubated for 5 h. The medium was aspirated and replaced with 100 μL/well of DMSO to dissolve the formazan salt. The color intensity of the formazan solution, which reflects the cell growth condition, was measured at 570 nm using a microplate spectrophotometer (SpectroAma™ 250, Winooski, VT, USA).

For series [2], the system named is drug-resistant lung cancer cell line A549/DPP. It is filed as cell-based, human. The note with it: 48 h. The protocol: as §1, §2
In series [3] the test system is hepatocellular carcinoma SMMC-7721 cells. Format: cell-based, human. The following applies: for IC50 Value SMMC-7721: 48 h. The protocol:
as §1, §2

Series [4] concerns human hepatocellular carcinoma HepG2. Format: cell-based. The note with it: 48 h. The protocol:
as §1, §2

For series [5] the following is noted: amide bond, 15-membered ring, PyBOP/DIEA, DCM, 0.7 mM, 25.0 °C.
Setting [6] is: ratio of IC50 values, MTT assay.

With `CC(C)C[C@H]1NC(=O)[C@@H](CC(C)C)NC(=O)[C@H](CC(C)C)N(C)C(=O)[C@@H](CC(C)C)NC(=O)[C@H](Cc2ccccc2)NC1=O` [Compound 1, cyclo(Phe-D-Leu-N-Me-Leu-D-Leu-D-Leu)], the “IC50 Value A549” value in series [1] is 8.74 µg/mL (≈ 14.2 µM). Moreover, the “IC50 Value A549-DPP” value in series [2] was 27.2 µg/mL (≈ 44.3 µM). The “IC50 Value SMMC-7721” value in series [3] was 1.25 µg/mL (≈ 2.04 µM). Moreover, in series [3] (setting [6]), the “anti-tumor activity towards SMMC-7721, fold higher than galaxamide” value was determined as 9 fold and the “anti-tumor activity towards SMMC-7721, fold higher than reference DPP (cisplatin)” value came out at 10 fold. For the same molecule, in series [4], the “IC50 Value HepG2” value turned out to be 12.15 µg/mL (≈ 19.8 µM).
In the case of `CC(C)C[C@@H]1NC(=O)[C@@H](Cc2ccccc2)NC(=O)[C@@H](CC(C)C)NC(=O)[C@@H](CC(C)C)NC(=O)[C@H](CC(C)C)N(C)C1=O` [Compound 2, cyclo(D-Phe-Leu-N-Me-Leu-D-Leu-D-Leu)], in series [1], the “IC50 Value A549” value was determined as 5.27 µg/mL (≈ 8.59 µM). Further, in series [2], the “IC50 Value A549-DPP” value was 15.01 µg/mL (≈ 24.5 µM). Besides, the “IC50 Value SMMC-7721” value in series [3] stood at 5.48 µg/mL (≈ 8.93 µM). For the same molecule, the “IC50 Value HepG2” value in series [4] was determined as 7.76 µg/mL (≈ 12.6 µM).
Regarding `CC(C)C[C@@H]1NC(=O)[C@H](Cc2ccccc2)NC(=O)[C@@H](CC(C)C)NC(=O)[C@@H](CC(C)C)NC(=O)[C@@H](CC(C)C)N(C)C1=O` [Compound 3, cyclo(Phe-Leu-D-N-Me-Leu-D-Leu-D-Leu)], the “IC50 Value A549” value in series [1] was 5.17 µg/mL (≈ 8.42 µM). The “IC50 Value A549-DPP” value in series [2] amounted to 11.41 µg/mL (≈ 18.6 µM). Also, the “IC50 Value SMMC-7721” value in series [3] is 2.77 µg/mL (≈ 4.51 µM). The “IC50 Value HepG2” value in series [4] is 18.82 µg/mL (≈ 30.7 µM).
Consider `CC(C)C[C@@H]1NC(=O)[C@@H](CC(C)C)N(C)C(=O)[C@H](CC(C)C)NC(=O)[C@@H](Cc2ccccc2)NC(=O)[C@@H](CC(C)C)NC1=O` [Compound 4, cyclo(D-Phe-Leu-D-N-Me-Leu-Leu-D-Leu)], for which, in series [1], the “IC50 Value A549” value came to 8.89 µg/mL (≈ 14.5 µM). In addition, the “IC50 Value A549-DPP” value in series [2] is 19.71 µg/mL (≈ 32.1 µM). In series [3], the “IC50 Value SMMC-7721” value is 1.53 µg/mL (≈ 2.49 µM). For the same molecule, the “IC50 Value HepG2” value in series [4] came to 16.58 µg/mL (≈ 27 µM).
As to `CC(C)C[C@H]1NC(=O)[C@@H](Cc2ccccc2)NC(=O)[C@H](CC(C)C)N(C)C(=O)[C@@H](CC(C)C)NC(=O)[C@H](CC(C)C)N(C)C1=O` [Compound 5, cyclo(D-Phe-D-Leu-N-Me-Leu-D-Leu-N-Me-Leu)], the “IC50 Value A549” value in series [1] came to 6.89 µg/mL (≈ 11 µM). For the same molecule, the “IC50 Value A549-DPP” value in series [2] was determined as 23.61 µg/mL (≈ 37.6 µM). Also, the “IC50 Value SMMC-7721” value in series [3] was determined as 2.74 µg/mL (≈ 4.36 µM). The “IC50 Value HepG2” value in series [4] was found to be 5.23 µg/mL (≈ 8.33 µM).
Take `CC(C)C[C@@H]1NC(=O)[C@H](CC(C)C)N(C)C(=O)[C@H](CC(C)C)NC(=O)[C@@H](CC(C)C)N(C)C(=O)[C@@H](Cc2ccccc2)NC1=O` [Compound 19, cyclo(D-Phe-D-N-Me-Leu-Leu-N-Me-Leu-Leu)]: in series [1], the “IC50 Value A549” value amounted to 5.21 µg/mL (≈ 8.3 µM). In series [2], the “IC50 Value A549-DPP” value amounted to 17.73 µg/mL (≈ 28.2 µM). Further, in series [3], the “IC50 Value SMMC-7721” value came out at 2.7 µg/mL (≈ 4.3 µM). In addition, the “IC50 Value HepG2” value in series [4] came out at 4.25 µg/mL (≈ 6.77 µM).
As to `CC(C)C[C@@H]1NC(=O)[C@H](Cc2ccccc2)NC(=O)[C@H](CC(C)C)N(C)C(=O)[C@@H](CC(C)C)NC(=O)[C@H](CC(C)C)NC1=O` [Compound 20, cyclo(Phe-Leu-Leu-D-Leu-N-Me-Leu)], in series [1], the “IC50 Value A549” value came out at 7.41 µg/mL (≈ 12.1 µM). In addition, in series [2], the “IC50 Value A549-DPP” value came to 16.15 µg/mL (≈ 26.3 µM). Moreover, the “IC50 Value SMMC-7721” value in series [3] is 3.35 µg/mL (≈ 5.46 µM). Besides, in series [4], the “IC50 Value HepG2” value was 9.68 µg/mL (≈ 15.8 µM).
For `CC(C)C[C@H]1NC(=O)[C@H](Cc2ccccc2)NC(=O)[C@H](CC(C)C)N(C)C(=O)[C@@H](CC(C)C)NC(=O)[C@@H](CC(C)C)NC1=O` [Compound 21, cyclo(Phe-D-Leu-D-Leu-D-Leu-N-Me-Leu)] the same measures were 6.47 µg/mL (≈ 10.5 µM), 18.6 µg/mL (≈ 30.3 µM), 8.21 µg/mL (≈ 13.4 µM) and 15.3 µg/mL (≈ 24.9 µM).
With `CC(C)C[C@H]1NC(=O)[C@@H](Cc2ccccc2)NC(=O)[C@H](CC(C)C)N(C)C(=O)[C@@H](CC(C)C)NC(=O)[C@H](CC(C)C)N(C)C1=O` [cyclo(D-Phe-D-Leu-N-Me-Leu-D-Leu-N-Me-Leu)], the ring closure, yield after HPLC in series [5] (from H-dPhe-dLeu-MeLeu-dLeu-MeLeu-OH?) worked out at 53.9%.
The molecule `CC(C)C[C@@H]1NC(=O)[C@H](CC(C)C)N(C)C(=O)[C@H](CC(C)C)NC(=O)[C@@H](CC(C)C)N(C)C(=O)[C@@H](Cc2ccccc2)NC1=O` [cyclo(D-Phe-D-N-Me-Leu-Leu-N-Me-Leu-Leu)] had a ring closure, yield after HPLC in series [5] (from H-dPhe-dMeLeu-Leu-MeLeu-Leu-OH?) of 45.5%.
As for `CC(C)C[C@@H]1NC(=O)[C@@H](Cc2ccccc2)NC(=O)[C@@H](CC(C)C)N(C)C(=O)[C@@H](CC(C)C)NC(=O)[C@@H](CC(C)C)NC1=O` [cyclo(D-Phe-Leu-D-Leu-D-Leu-D-N-Me-Leu)], the ring closure, yield after HPLC in series [5] (from H-dPhe-Leu-dLeu-dLeu-dMeLeu-OH?) worked out at 50%.
Take `CC(C)C[C@@H]1NC(=O)[C@@H](Cc2ccccc2)NC(=O)[C@H](CC(C)C)N(C)C(=O)[C@H](CC(C)C)NC(=O)[C@@H](CC(C)C)NC1=O` [cyclo(D-Phe-Leu-D-Leu-Leu-N-Me-Leu)]: the ring closure, yield after HPLC in series [5] (from H-dPhe-Leu-dLeu-Leu-MeLeu-OH?) worked out at 48.5%.
Take `CC(C)C[C@@H]1NC(=O)[C@@H](CC(C)C)N(C)C(=O)[C@H](CC(C)C)NC(=O)[C@@H](Cc2ccccc2)NC(=O)[C@@H](CC(C)C)NC1=O` [cyclo(D-Phe-Leu-D-N-Me-Leu-Leu-D-Leu)]: the ring closure, yield after HPLC in series [5] (from H-dPhe-Leu-dMeLeu-Leu-dLeu-OH?) was 53.8%.
As for `CC(C)C[C@@H]1NC(=O)[C@H](CC(C)C)NC(=O)[C@@H](Cc2ccccc2)NC(=O)[C@H](CC(C)C)N(C)C(=O)[C@@H](CC(C)C)NC1=O` [cyclo(D-Phe-Leu-Leu-D-Leu-N-Me-Leu)], in series [5] (from H-dPhe-Leu-Leu-dLeu-MeLeu-OH?), the ring closure, yield after HPLC stood at 65.4%.
As to `CC(C)C[C@@H]1NC(=O)[C@@H](Cc2ccccc2)NC(=O)[C@@H](CC(C)C)NC(=O)[C@@H](CC(C)C)NC(=O)[C@H](CC(C)C)N(C)C1=O` [cyclo(D-Phe-Leu-N-Me-Leu-D-Leu-D-Leu)], in series [5] (from H-dPhe-Leu-MeLeu-dLeu-dLeu-OH?), the ring closure, yield after HPLC turned out to be 61.5%.
As to `CC(C)C[C@@H]1NC(=O)[C@H](CC(C)C)N(C)C(=O)[C@@H](Cc2ccccc2)NC(=O)[C@@H](CC(C)C)N(C)C(=O)[C@H](CC(C)C)NC1=O` [cyclo(D-Phe-N-Me-Leu-Leu-Leu-D-N-Me-Leu)], the ring closure, yield after HPLC in series [5] (from H-dPhe-MeLeu-Leu-Leu-dMeLeu-OH?) worked out at 45.1%.
Molecule `CC(C)C[C@H]1NC(=O)[C@H](Cc2ccccc2)NC(=O)[C@H](CC(C)C)N(C)C(=O)[C@@H](CC(C)C)NC(=O)[C@@H](CC(C)C)NC1=O` [cyclo(Phe-D-Leu-D-Leu-D-Leu-N-Me-Leu)] gave a ring closure, yield after HPLC in series [5] (from H-Phe-dLeu-dLeu-dLeu-MeLeu-OH?) of 55.1%.
Consider `CC(C)C[C@H]1NC(=O)[C@@H](CC(C)C)NC(=O)[C@H](CC(C)C)N(C)C(=O)[C@@H](CC(C)C)NC(=O)[C@H](Cc2ccccc2)NC1=O` [cyclo(Phe-D-Leu-N-Me-Leu-D-Leu-D-Leu)], for which, in series [5] (from H-Phe-dLeu-MeLeu-dLeu-dLeu-OH?), the ring closure, yield after HPLC was determined as 57.3%.
In turn, `CC(C)C[C@@H]1NC(=O)[C@H](Cc2ccccc2)NC(=O)[C@@H](CC(C)C)NC(=O)[C@@H](CC(C)C)NC(=O)[C@@H](CC(C)C)N(C)C1=O` [cyclo(Phe-Leu-D-N-Me-Leu-D-Leu-D-Leu)] had a ring closure, yield after HPLC in series [5] (from H-Phe-Leu-dMeLeu-dLeu-dLeu-OH?) of 51.7%.
Take `CC(C)C[C@@H]1NC(=O)[C@H](Cc2ccccc2)NC(=O)[C@H](CC(C)C)N(C)C(=O)[C@@H](CC(C)C)NC(=O)[C@H](CC(C)C)NC1=O` [cyclo(Phe-Leu-Leu-D-Leu-N-Me-Leu)]: the ring closure, yield after HPLC in series [5] (from H-Phe-Leu-Leu-dLeu-MeLeu-OH?) is 46.1%.
As to `CC(C)C[C@@H]1NC(=O)[C@H](Cc2ccccc2)NC(=O)[C@@H](CC(C)C)N(C)C(=O)[C@H](CC(C)C)NC(=O)[C@H](CC(C)C)NC1=O` [cyclo(Phe-Leu-Leu-Leu-D-N-Me-Leu)], in series [5] (from H-Phe-Leu-Leu-Leu-dMeLeu-OH?), the ring closure, yield after HPLC was 66.4%.

For the origin of these results see article PMC5039532, “Design and Synthesis of Analogues of Marine Natural Product Galaxamide, an N-methylated Cyclic Pentapeptide, as Potential Anti-Tumor Agent in Vitro” (Marine Drugs, 2016).
